EPA's ToxRefDB 2

Tests used:
rat [1] = settings: Sub-acute repeat dose toxicity, Oral, Gavage/Intubation, dose end: 14 day, group: systemic
rat [2] = settings: Subchronic oral toxicity in rodents, sprague dawley, Gavage/Intubation, dose end: 91 day, group: systemic
rat [3] = settings: Sub-acute repeat dose toxicity, Oral, Gavage/Intubation, dose end: 5 day, group: systemic
rat [4] = settings: Sub-acute repeat dose toxicity; Oral; Gavage/Intubation; dose end: 5 day; group: systemic; systemic / in life observation / food consumption / food consumption
rat [5] = settings: Sub-acute repeat dose toxicity; Oral; Gavage/Intubation; dose end: 4 day; group: systemic; systemic / clinical chemistry / [other] / [other] + systemic / clinical chemistry / 5' nucleotidase / 5' nucleotidase + systemic / clinical …
rat [6] = settings: Sub-acute repeat dose toxicity, Oral, Gavage/Intubation, dose end: 8 day, group: systemic
dog = settings: Subchronic oral toxicity in nonrodent, beagle, Gavage/Intubation, dose end: 93 day
rat [7] = settings: Sub-acute repeat dose toxicity, Oral, Gavage/Intubation, dose end: 12 day, group: systemic
rat [8] = settings: Combined chronic toxicity/carcinogenicity; wistar; Oral; Feed; dose end: 24 month; group: systemic; systemic / organ weight / spleen / absolute + systemic / organ weight / spleen / relative to body weight + systemic / pathology microscopic…
rat [9] = settings: Multigenerational reproductive toxicity study, sprague dawley, Oral, Feed, dose end: 2 generation
mouse = settings: Carcinogenicity; other; Oral; Feed; dose end: 24 month; group: systemic; systemic / hematology / anemia / anemia - nos + systemic / organ weight / liver / absolute + systemic / organ weight / liver / relative to …
rat [10] = settings: Subchronic oral toxicity in rodents, other, Feed, dose end: 6 month, group: systemic
[11] = systemic / clinical chemistry / 5' nucleotidase / 5' nucleotidase + systemic / clinical chemistry / glucose / glucose + systemic / clinical …
[12] = systemic / clinical chemistry / potassium / potassium
[13] = systemic / in life observation / clinical signs / abnormal feces + systemic / in life observation / clinical signs / fur (altered appearance…
[14] = systemic / in life observation / mortality / mortality + systemic / organ weight / testes / absolute + systemic / pathology microscopic / …
[15] = systemic / clinical chemistry / albumin / albumin + systemic / clinical chemistry / globulins / globulins + systemic / clinical chemistry / …
[16] = systemic / hematology / neutrophils / neutrophils + systemic / pathology microscopic / mesentery / inflammation + systemic / pathology …
[17] = systemic / hematology / neutrophils / neutrophils
[18] = group: maternal, reproductive / reproductive performance / estrous cycle / absent corpora lutea
[19] = group: systemic, systemic / organ weight / testes / absolute + systemic / pathology microscopic / testes / degeneration
[20] = group: systemic, systemic / organ weight / testes / absolute + systemic / pathology microscopic / testes / degeneration + systemic / in life observation / …
[21] = systemic / hematology / neutrophils / neutrophils + systemic / pathology microscopic / intestine small / inflammation + systemic / pathology…
[22] = group: offspring, systemic / in life observation / body weight / offspring (pup) weight
[23] = group: parental, systemic / in life observation / body weight / body weight + systemic / in life observation / body weight / body weight gain + systemic / in…
[24] = systemic / pathology gross / urinary bladder / lesion(s) (nos) + systemic / pathology microscopic / blood vessel / [other] + systemic / …

`CCc1nn(C2CCCCC2)c2cc(C3(C#N)CCC(C(=O)O)CC3)ccc12` (stereo unspecified) showed an LOAEL (rat [1]; [11]) of over 60 mg/kg/day, an NOAEL (rat [1]; [11]) of at least 60 mg/kg/day and an LEL (rat [1]; [12]) of 3 mg/kg/day. The NEL (rat [1]; [12]) was under 3 mg/kg/day, the LEL (rat [2]; [13]) was 1 mg/kg/day and the NEL (rat [2]; [13]) was under 1 mg/kg/day. It also gave an LOAEL (rat [2]; [14]) of over 15 mg/kg/day, an NOAEL (rat [2]; [14]) of at least 15 mg/kg/day and an LOAEL (rat [3]; [15]) of over 30 mg/kg/day. It also gave an NOAEL (rat [3]; [15]) of at least 30 mg/kg/day, an LEL (rat [3]; [16]) of 15 mg/kg/day and an NEL (rat [3]; [16]) of under 15 mg/kg/day. The LEL (rat [4]) was 1 mg/kg/day, the LOAEL (rat [4]) was over 10 mg/kg/day and the NEL (rat [4]) was under 1 mg/kg/day. It also gave an NOAEL (rat [4]) of at least 10 mg/kg/day, an LEL (rat [5]) of 30 mg/kg/day and an LOAEL (rat [5]) of over 30 mg/kg/day. It also gave an NEL (rat [5]) of under 30 mg/kg/day, an NOAEL (rat [5]) of at least 30 mg/kg/day and an LOAEL (rat [6]; [15]) of over 30 mg/kg/day. For the same compound, the NOAEL (rat [6]; [15]) was at least 30 mg/kg/day, the LEL (rat [6]; [17]) was 15 mg/kg/day and the NEL (rat [6]; [17]) was under 15 mg/kg/day. The LEL (dog; [18]) was 1 mg/kg/day, the LOAEL (dog; [18]) was over 10 mg/kg/day and the NEL (dog; [18]) was under 1 mg/kg/day. For the same compound, the NOAEL (dog; [18]) was at least 10 mg/kg/day, the LEL (dog; [19]) was 1 mg/kg/day and the NEL (dog; [19]) was under 1 mg/kg/day. For the same compound, the LOAEL (dog; [20]) was over 10 mg/kg/day, the NOAEL (dog; [20]) was at least 10 mg/kg/day and the LOAEL (rat [7]; [15]) was over 30 mg/kg/day. For the same compound, the NOAEL (rat [7]; [15]) was at least 30 mg/kg/day, the LEL (rat [7]; [21]) was 15 mg/kg/day and the NEL (rat [7]; [21]) was under 15 mg/kg/day.

With `CN(C)C(=O)Nc1ccc(Cl)c(Cl)c1` [Diuron] the LEL (rat [8]) was 1 mg/kg/day, the LOAEL (rat [8]) was 1 mg/kg/day and the NEL (rat [8]) was under 1 mg/kg/day. It also gave an NOAEL (rat [8]) of under 1 mg/kg/day, an LEL (rat [9]; [22]) of 139 mg/kg/day and an LOAEL (rat [9]; [22]) of 139 mg/kg/day. The NEL (rat [9]; [22]) was 18.9 mg/kg/day, the NOAEL (rat [9]; [22]) was 18.9 mg/kg/day and the LEL (rat [9]; [23]) was 101 mg/kg/day. It also gave an LOAEL (rat [9]; [23]) of 101 mg/kg/day, an NEL (rat [9]; [23]) of 14.8 mg/kg/day and an NOAEL (rat [9]; [23]) of 14.8 mg/kg/day. The LEL (mouse) was 640 mg/kg/day, the LOAEL (mouse) was 640 mg/kg/day and the NEL (mouse) was 50.8 mg/kg/day. It also gave an NOAEL (mouse) of 50.8 mg/kg/day, an LEL (rat [10]; [24]) of 0.3 mg/kg/day and an NEL (rat [10]; [24]) of under 0.3 mg/kg/day. The NOAEL (rat [10]; [24]) was 0.7 mg/kg/day and the LOAEL (rat [10]; systemic / pathology microscopic / spleen / pigmentation) was 1.6 mg/kg/day.
